In patent publication US10723741B1, “DNA polymerase IIIC inhibitors and use thereof” (Acurx Pharmaceuticals, LLC, priority 2018, dated 2020):
In brackets after ≈: the same amount, converted by molar mass. Where two headings read alike, the source gives them in different places.

Columns and labels:
Type in all cases: cell-based
[1] = test system: Staphylococcus aureus NRS384 (MRSA); assay: Broth microdilution MIC, S. aureus NRS384 (MRSA); settings: Staphylococcus aureus, read-out: MIC NRS 384 (MRSA)
Outline: (§1)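 Two-fold dilutions from 64 to 0.0625 μg/ml final, 1% DMSO, were inoculated at ~5.0×10^5 cfu/ml in the strain's test medium and kept 20 h at 37 °C in ambient atmosphere. Colonies were grown on MHA, with S. pneumoniae on blood agar under 5% CO2.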

[2] = test system: Staphylococcus aureus ATCC 29213 (MSSA); assay: Broth microdilution MIC, S. aureus ATCC 29213 (MSSA); settings: read-out: MIC S. aureus ATCC 29213 (MSSA)
Outline: as §1

[3] = test system: Enterococcus faecalis ATCC 29212; assay: Broth microdilution MIC, E. faecalis ATCC 29212; settings: read-out: MIC E. faecalis ATCC 29212
Outline: as §1

[4] = test system: Enterococcus faecium ATCC 700221 (VRE); assay: Broth microdilution MIC, E. faecium ATCC 700221 (VRE); settings: Enterococcus faecium, read-out: MIC E. faecium ATCC 700221 (VRE)
Outline: as §1

[5] = test system: Streptococcus pneumoniae ATCC 49619; assay: Broth microdilution MIC, S. pneumoniae ATCC 49619; settings: read-out: MIC S. pneumoniae ATCC 49619
Outline: as §1

[6] = test system: Bacillus subtilis ATCC 6633; assay: Broth microdilution MIC, B. subtilis ATCC 6633; settings: read-out: MIC B. subtilis ATCC 6633
Outline: as §1

[7] = test system: Escherichia coli ATCC 25922; assay: Broth microdilution MIC, E. coli ATCC 25922 (MHIIB w & w/o 4 mM EDTA); settings: for MIC: Escherichia coli, read-out: MIC E. coli ATCC 25922; for MIC E. coli ATCC 25922 + 4 mM EDTA: with 4 mM EDTA
Outline: as §1

[8] = broth microdilution, 37° C., 20 hours
[9] = ATCC29212, broth microdilution, 37° C., 20 hours
[10] = ATCC49619, broth microdilution, 37° C., 20 hours
[11] = ATCC6633, broth microdilution, 37° C., 20 hours
[12] = ATCC25922, without EDTA, broth microdilution, 37° C., 20 hours

| Compound | MIC [1, 8] [µg/mL] | MIC [2, 8] [µg/mL] | MIC [3, 9] [µg/mL] | MIC [4, 8] [µg/mL] | MIC [5, 10] [µg/mL] | MIC [6, 11] [µg/mL] | MIC [7, 12] [µg/mL] | MIC E. coli ATCC 25922 + 4 mM EDTA [7, 8] [µg/mL] | MIC ([1]; 20 h) [µg/mL] | MIC ([2]; 20 h) [µg/mL] | MIC ([3]; ATCC29212, 20 h) [µg/mL] | MIC ([4]; 20 h) [µg/mL] | MIC ([5]; ATCC49619, 20 h) [µg/mL] | MIC ([6]; ATCC6633, 20 h) [µg/mL] | MIC ([7]; ATCC25922, 20 h) [µg/mL] |
| --- | --- | --- | --- | --- | --- | --- | --- | --- | --- | --- | --- | --- | --- | --- | --- |
| O=c1[nH]c(NCc2ccc(Cl)c(Cl)c2)nc2cnn(CCOCCOCCOCCO)c12 [Compound 116, 5-((3,4-Dichlorobenzyl)amino)-1-(2-(2-(2-(2-hydroxyethoxy)ethoxy)ethoxy)ethyl)-1H-pyrazolo[4,3-d]pyrimidin-7(6H)-one] | 32 (≈ 65.8 µM) | 64 (≈ 132 µM) | 16 (≈ 32.9 µM) | 8 (≈ 16.4 µM) | 8 (≈ 16.4 µM) | 8 (≈ 16.4 µM) | > 64 | >64 | – | – | – | – | – | – | – |
| O=c1[nH]c(NCc2ccc(Cl)c(Cl)c2)nc2cn(Cc3ccccc3)nc12 [Compound 129, 2-Benzyl-5-((3,4-dichlorobenzyl)amino)-2H-pyrazolo[4,3-d]pyrimidin-7(6H)-one] | > 64 | > 64 | > 64 | > 64 | > 64 | > 64 | > 64 | >64 | – | – | – | – | – | – | – |
| COc1cccnc1C(=O)N1CCC(n2ncc3nc(NCc4ccc(Cl)c(Cl)c4)[nH]c(=O)c32)CC1.Cl [Compound 268, 5-((3,4-Dichlorobenzyl)amino)-1-(1-(3-methoxypicolinoyl)piperidin-4-yl)-1H-pyrazolo[4,3-d]pyrimidin-7(6H)-one hydrochloride] | 8 | 8 | 8 | 4 | 4 | 2 | > 64 | >64 | – | – | – | – | – | – | – |
| Cc1ccc(CNc2nc3cnn(C)c3c(=O)[nH]2)cc1C [Compound 33, 5-((3,4-Dimethylbenzyl)amino)-1-methyl-1H-pyrazolo[4,3-d]pyrimidin-7(6H)-one] | 16 (≈ 56.5 µM) | 16 (≈ 56.5 µM) | 32 (≈ 113 µM) | 16 (≈ 56.5 µM) | 16 (≈ 56.5 µM) | 8 (≈ 28.2 µM) | > 64 | >64 | – | – | – | – | – | – | – |
| COP(=O)(OC)OCCOCCn1ncc2nc(NCc3ccc(Cl)c(Cl)c3)[nH]c(=O)c21 [Compound 297, 2-(2-(5-((3,4-dichlorobenzyl)amino)-7-oxo-6,7-dihydro-1H-pyrazolo[4,3-d]pyrimidin-1-yl)ethoxy)ethyl dimethyl phosphate] | – | – | – | – | – | – | – | >64 | 32 | 16 | 16 | 8 | 8 | 8 | > 64 |
| CC(C)(C)OC(=O)N1CCOC(Cn2ncc3nc(NCc4ccc(Cl)c(Cl)c4)[nH]c(=O)c32)C1 (stereo not shown) [Compound 148, tert-butyl 2-((5-((3,4-dichlorobenzyl)amino)-7-oxo-6,7-dihydro-1H-pyrazolo[4,3-d]pyrimidin-1-yl)methyl)morpholine-4-carboxylate] | 4 (≈ 7.85 µM) | 8 (≈ 15.7 µM) | 16 (≈ 31.4 µM) | 4 (≈ 7.85 µM) | 16 (≈ 31.4 µM) | 2 (≈ 3.93 µM) | > 64 | >64 | – | – | – | – | – | – | – |
| Cl.O=C(c1ccncc1)N1CCC(n2ncc3nc(NCc4ccc(Cl)c(Cl)c4)[nH]c(=O)c32)C1 (stereo not shown) [Compound 259, 5-[(3,4-Dichlorophenyl)methylamino]-1-[1-(pyridine-4-carbonyl)pyrrolidin-3-yl]-6H-pyrazolo[4,3-d]pyrimidin-7-one] | 8 | 8 | 4 | 4 | 4 | 2 | > 64 | >64 | – | – | – | – | – | – | – |
| CN1CCN(CCn2ncc3nc(NCc4ccc(Cl)c(Cl)c4)[nH]c(=O)c32)CC1=O [Compound 60, 5-((3,4-Dichlorobenzyl)amino)-1-(2-(4-methyl-3-oxopiperazin-1-yl)ethyl)-1H-pyrazolo[4,3-d]pyrimidin-7(6H)-one] | 8 (≈ 17.8 µM) | 8 (≈ 17.8 µM) | 8 (≈ 17.8 µM) | 2 (≈ 4.44 µM) | 4 (≈ 8.88 µM) | 4 (≈ 8.88 µM) | > 64 | >64 | – | – | – | – | – | – | – |
| Cl.Cl.O=c1[nH]c(NCc2ccc(Cl)c(Cl)c2)nc2cnn(C3CCN(CC4CCCCN4)CC3)c12 (stereo not shown) [Compound 249, 5-((3,4-dichlorobenzyl)amino)-1-(1-(piperidin-2-ylmethyl)piperidin-4-yl)-1H-pyrazolo[4,3-d]pyrimidin-7(6H)-one dihydrochloride] | 16 | 16 | 16 | 8 | 4 | 4 | > 64 | 64 | – | – | – | – | – | – | – |
| Cn1nc(C2C=CCO2)c2nc(NCc3ccc(Cl)c(Cl)c3)[nH]c(=O)c21 (stereo not shown) [Compound 46, 5-((3,4-dichlorobenzyl)amino)-3-(2,5-dihydrofuran-2-yl)-1-methyl-1H-pyrazolo[4,3-d]pyrimidin-7(6H)-one] | 8 (≈ 20.4 µM) | 4 (≈ 10.2 µM) | 16 (≈ 40.8 µM) | 8 (≈ 20.4 µM) | 16 (≈ 40.8 µM) | 4 (≈ 10.2 µM) | > 64 | >64 | – | – | – | – | – | – | – |
| O=c1[nH]c(NCc2ccc(Cl)c(Cl)c2)nc2cnn(CCc3ncccn3)c12 [Compound 117, 5-((3,4-Dichlorobenzyl)amino)-1-(2-(pyrimidin-2-yl)ethyl)-1H-pyrazolo[4,3-d]pyrimidin-7(6H)-one] | 8 (≈ 19.2 µM) | 8 (≈ 19.2 µM) | 8 (≈ 19.2 µM) | 4 (≈ 9.61 µM) | 4 (≈ 9.61 µM) | 2 (≈ 4.8 µM) | > 64 | >64 | – | – | – | – | – | – | – |
| Cn1ncc2nc(NCc3cccc(Cl)c3Cl)[nH]c(=O)c21 [Compound 29, 5-((2,3-Dichlorobenzyl)amino)-1-methyl-1H-pyrazolo[4,3-d]pyrimidin-7(6H)-one] | > 64 | > 64 | > 64 | > 64 | > 64 | > 64 | > 64 | >64 | – | – | – | – | – | – | – |
| CN1CCOC(Cn2ncc3nc(NCc4ccc(Cl)c(Cl)c4)[nH]c(=O)c32)C1.Cl (stereo not shown) [Compound 147, 5-((3,4-dichlorobenzyl)amino)-1-((4-methylmorpholin-2-yl)methyl)-1H-pyrazolo[4,3-d]pyrimidin-7(6H)-one hydrochloride] | 4 | 8 | 8 | 2 | 4 | 2 | > 64 | 64 | – | – | – | – | – | – | – |
| COC(=O)CCn1cc2nc(NCc3ccc(Cl)c(Cl)c3)[nH]c(=O)c2n1 [Compound 232, Methyl 3-(5-((3,4-dichlorobenzyl)amino)-7-oxo-6,7-dihydro-2H-pyrazolo[4,3-d]pyrimidin-2-yl)propanoate] | 32 (≈ 80.8 µM) | > 64 | > 64 | 16 (≈ 40.4 µM) | 16 (≈ 40.4 µM) | 16 (≈ 40.4 µM) | > 64 | >64 | – | – | – | – | – | – | – |
